Measured values from patent publication US10376520B2, “Methods for the treatment of cardiovascular disorders” (Galapagos NV, priority 2015, dated 2019).

How the values were obtained:
RA patients [1] = experiment: Disease Activity Score 28 (DAS28(CRP)), Study 2; assay type: in vivo, human
Text: As used herein, the term ‘DAS28(CRP)’ refers to a clinical scoring ranging from 2.0 to 10.0 to measure the disease status at a given point in time, and thereby follow the progress and improvement of rheumatoid arthritis in a patient, and includes a 28 tender and swollen joint count, CRP measurement from blood analysis, and a general health assessment on a visual analog scale. A DAS28(CRP) value below 2.6 is indicative of remission, A DAS28(CRP) between 2.6 and 3.2 is indicative of low disease activity, between 3.2 and 5.1 is indicative of moderate disease activity, whereas a DAS28(CRP) above 5.1 is linked to high disease activity. (Wells et al., 2008)
Double-blind, placebo-controlled, monotherapy study in subjects with moderately to severely active RA who have an inadequate response to methotrexate (MTX) (oral or parenteral).
Twelve weeks of treatment with Compound 1 (dosed as a [Compound 1:HCl:3H2O]) at 50 mg, 100 mg, or 200 mg q.d.; or placebo. At Week 12, all subjects on placebo and the subjects on the 50 mg dose who have not achieved 20% improvement in swollen joint count (SJC66) and tender joint count (TJC68) will be assigned to 100 mg q.d. in a blinded fashion and will continue treatment until Week 24. Subjects in the other groups will maintain their randomized treatment until Week 24.
The (DAS28(CRP)) is a system developed and validated by the European League Against Rheumatism (EULAR) to measure the progress and improvement of rheumatoid arthritis and has been extensively validated (Wells et al., 2008). The DAS28(CRP) scoring includes a 28 tender and swollen joint count, CRP measurement from blood analysis, and a general health assessment on a visual analog scale (Fransen et al., 2003).
DAS28(CRP) values range from 2.0 to 10.0, and more particularly reflect the following status: • Remission: DAS28(CRP)≤2.6 • Low Disease activity: 2.6<DAS28(CRP)≤3.2 • Moderate Disease Activity: 3.2<DAS28(CRP)≤5.1 • High Disease Activity: DAS28(CRP)>5.1
In practice, the DAS28(CRP) measurement involves the evaluation 28 different joints including in the measurement (proximal interphalangeal joints (10 joints), metacarpophalangeal joints (10), wrists (2), elbows (2), shoulders (2), and knees (2)). When looking at these joints, both the number of joints with tenderness upon touching and swelling are counted.
Firstly, the patient is asked to make a vertical mark on a 100 mm Visual Analog Scale (VAS) corresponding to their general health or global disease activity. Using an electronic touchscreen, the mark is measured from the left-hand side in mm to obtain the VAS value, which is used in the formula below.
Secondly, a swollen and tender joint examination is then performed on the patient. The swollen and tender joints are recorded. From this examination are obtained the total amount of swollen joints (SJC) and the total amount of tender joints (TJC), which are used in the formula below.
Thirdly, C-reactive protein (CRP) levels (in mg/dL) are measured.
Finally, the values obtained above (VAS, JTC28, SJC28, and CRP) are computed into the following Formula to obtain the DAS28(CRP) score.
The number of subjects (N) provided in each groups corresponds to the number of patients starting the study in each group, and the DAS28 (CRP) data reported below corresponds to the responding patients continuing for the entire 24 weeks on their initial treatment course.

RA patients [2] = experiment: Lipoprotein A (Lp(a)) level (Selectra autoanalyzer), Study 4; assay type: in vivo, human; details: for LpA level, 4 weeks CFB: 4 weeks change from baseline
Description: Randomized double-blind, placebo-controlled add on study in subjects with active RA who have an inadequate response to MTX monotherapy, in combination with methotrexate, administered for 4 weeks in the treatment of subjects with active rheumatoid arthritis who have an inadequate response to methotrexate alone.
Compound 1 (dosed as a [Compound 1:HCl:3H2O]) capsules administered orally in 30 mg, 75 mg, 150 mg, or 300 mg doses per day for 4 weeks.
Lipoprotein A (Lp(a)) were measured on the Selectra autoanalyzer (Sopachem BV, 44-RI Straat 33, 4051 AP Ochten, The Netherlands). All assays were commercially available from DiaSys Diagnostic Systems GmbH, Alte Strasse 9, 65558 Holzheim, Germany.

## O=C(Nc1nc2cccc(-c3ccc(CN4CCS(=O)(=O)CC4)cc3)n2n1)C1CC1 [Compound 1, cyclopropanecarboxylic acid {5-[4-(1,1-dioxo-thiomorpholin-4-ylmethyl)-phenyl]-[1,2,4]triazolo[1,5-a]pyridin-2yl}-amide]
RA patients [1]; 50 mg q.d., Week 16
  DAS28(CRP) mean CFB (LOCF) - over 24 weeks: −1.88
RA patients [1]; 50 mg q.d., week 1
  DAS28(CRP) mean CFB (LOCF) - over 12 weeks: −0.70
  DAS28(CRP) mean CFB (LOCF) - over 24 weeks: −0.75
RA patients [1]; 50 mg q.d., week 2
  DAS28(CRP) mean CFB (LOCF) - over 12 weeks: −0.97
RA patients [1]; 50 mg q.d., week 4
  DAS28(CRP) mean CFB (LOCF) - over 12 weeks: −1.37
RA patients [1]; 50 mg q.d., week 12
  DAS28(CRP) mean CFB (LOCF) - over 24 weeks: −1.75
RA patients [1]; 100 mg q.d.
  % patients reaching low disease activity and/or remission at week 24 (LOCF): 50%
RA patients [1]; 100 mg q.d., week 1
  DAS28(CRP) mean CFB (LOCF) - over 12 weeks: −0.88
  DAS28(CRP) mean CFB (LOCF) - over 24 weeks: −0.87
RA patients [1]; 100 mg q.d., week 4
  DAS28(CRP) mean CFB (LOCF) - over 12 weeks: −1.50
RA patients [1]; 100 mg q.d., week 12
  DAS28(CRP) mean CFB (LOCF) - over 24 weeks: −2.04
RA patients [1]; 100 mg q.d., week 16
  DAS28(CRP) mean CFB (LOCF) - over 24 weeks: −2.39
RA patients [1]; 200 mg q.d., week 8
  DAS28(CRP) mean CFB (LOCF) - over 24 weeks: −2.23
RA patients [1]; 200 mg q.d., week 20
  DAS28(CRP) mean CFB (LOCF) - over 24 weeks: −2.55
RA patients [2]; 30 mg q.d.
  LpA level, 4 weeks CFB: 3.9%
  LpA level, Baseline: 22.5 mg/dL
  LpA level, week 4: 25.9 mg/dL
RA patients [2]; 75 mg q.d.
  LpA level, 4 weeks CFB: −3.7%
  LpA level, Baseline: 28.5 mg/dL
  LpA level, week 4: 23.6 mg/dL
RA patients [2]; 150 mg q.d.
  LpA level, 4 weeks CFB: 7.0%
  LpA level, Baseline: 29.5 mg/dL
  LpA level, week 4: 35 mg/dL
RA patients [2]; 300 mg q.d.
  LpA level, 4 weeks CFB: 4.4%
  LpA level, Baseline: 13.4 mg/dL
  LpA level, week 4: 10.1 mg/dL
